Assay results as given in patent US20060069132A1, “Azolecarboxamide herbicides” (priority 2004, published 2006).

What was measured:
barnyardgrass = assay: Test C flooded paddy test; type: in vivo, Echinochloa crus-galli; conditions: for Plant response rating, Barnyardgrass: visual rating after 12 to 14 days
In short: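 Scoring by eye, 12–14 days post-treatment, greenhouse-held plants vs. controls; 0 no effect, 100 complete control. Sprayed at 1–4 leaves (2–18 cm); paddy barnyardgrass at 2 leaves, flooded.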

morningglory = assay: Test A pre-/postemergence herbicide test; type: in vivo, Ipomoea spp.
In short: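 Seeds sown in sandy loam received a preemergence directed soil spray of compound in non-phytotoxic solvent with surfactant; postemergence plants (2–10 cm, one- to two-leaf stage) were sprayed to runoff at the same time. After ~10 days in greenhouse, injury was rated visually versus untreated controls (0 = no effect, 100 = complete control).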

[1] = 62 g ai/ha, scale 0 to 100 (0 no effect, 100 complete control)
[2] = 125 g ai/ha, scale of 0 to 100, 0 is no effect, 100 is complete control
[3] = 500 g ai/ha, scale 0 to 100 (0 no effect, 100 complete control)
[4] = Postemergence, 500 g ai/ha, 0 to 100 scale, 0 no effect, 100 complete control
[5] = Postemergence, 2000 g ai/ha, 0 to 100 scale, 0 no effect, 100 complete control
[6] = Preemergence, 500 g ai/ha, visual rating, 0 to 100 scale (0 no effect, 100 complete control)
[7] = 125 g ai/ha, scale 0 to 100 (0 no effect, 100 complete control)
[8] = 250 g ai/ha, scale of 0 to 100, 0 is no effect, 100 is complete control
[9] = Preemergence, 2000 g ai/ha, visual rating, 0 to 100 scale (0 no effect, 100 complete control)
[10] = preemergence, 500 g ai/ha, visual injury, 0 to 100 scale (0 no effect, 100 complete control)

Row | Structure (SMILES) | Barnyardgrass plant response rating (barnyardgrass; [1]) | Barnyardgrass plant response rating (barnyardgrass; [2]) | Plant response rating, Barnyardgrass (barnyardgrass; 250 g ai/ha, scale 0 to 100 (0 no effect, 100 complete control)) | Plant response rating, Barnyardgrass (barnyardgrass; [3]) | Plant response rating, Morningglory (morningglory; [4]) | Plant response rating, Morningglory (morningglory; [5]) | Morningglory plant response rating (morningglory; [6]) | Morningglory plant response rating (morningglory; Preemergence, 2000 g ai/ha, 0 to 100 scale, 0 no effect, 100 complete control) | Barnyardgrass plant response rating (barnyardgrass; [7]) | Barnyardgrass plant response rating (barnyardgrass; [8]) | Morningglory plant response rating (morningglory; [4]) | Morningglory plant response rating (morningglory; [9]) | Morningglory plant response rating (morningglory; [10]) | Morningglory plant response rating (morningglory; Postemergence, 125 g ai/ha, 0 to 100 scale, 0 no effect, 100 complete control) | Morningglory plant response rating (morningglory; preemergence, 125 g ai/ha, visual injury, 0 to 100 scale (0 no effect, 100 complete control))
1 | CCn1nc(C(C)(C)C)cc1C(=O)Nc1cccc(C(=O)NCCF)c1 [Compound 45] | 25 | 30 | 60 | 80 | 25 | 25 | 15 | 75 |  |  |  |  |  |  | 
2 | CCn1nc(C(C)(C)C)cc1C(=O)Nc1cncc(C(=O)N2CC=CC2)n1 [Compound 290] | 0 |  |  | 40 |  | 30 |  |  | 0 | 25 | 20 | 40 | 10 |  | 
3 | CCn1nc(C(C)(C)C)cc1C(=O)Nc1cccc(OCCCF)c1 [Compound 138] | 0 | 0 |  | 30 |  | 40 | 15 |  |  | 15 | 15 | 45 |  |  | 
4 | C#CCNC(=O)c1cc(NC(=O)c2cc(C(C)(C)C)nn2CC)ccn1 [Compound 283] | 0 |  |  | 10 |  | 0 |  |  | 0 | 0 | 0 | 10 | 0 |  | 
5 | CCn1nc(C(C)(C)C)cc1C(=O)Nc1cccc(C(C)=O)c1 [Compound 122] | 20 | 50 |  | 80 |  | 65 | 25 |  |  | 60 | 30 | 30 |  |  | 
6 | CCc1nc(C(C)(C)C)sc1C(=O)Nc1cccc(C(=O)NCCF)c1 [Compound 209] | 0 |  |  | 80 |  | 15 |  |  | 55 | 70 | 0 | 40 | 20 |  | 
7 | CCn1nc(C(C)(C)C)cc1C(=O)Nc1nc(C(=O)N2CC=CC2)ccc1F [Compound 281] | 0 |  |  | 65 |  | 15 |  |  | 20 | 30 | 10 | 25 | 5 |  | 
8 | C#CCNC(=O)c1cccc(NC(=O)c2sc(C(C)(C)C)nc2CC)c1 [Compound 319] | 0 |  |  | 65 |  | 25 |  |  | 25 | 50 | 15 | 60 | 20 |  | 
9 | CCn1nc(C(C)(C)C)cc1C(=O)Nc1cccc(C(=O)NC(C)C)c1 [Compound 51] | 0 | 0 |  | 75 | 35 |  | 15 |  |  | 20 |  |  |  | 10 | 10
10 | CCc1nc(C(C)(C)C)sc1C(=O)Nc1cccc(C(=O)NC(C)(C)C)n1 [Compound 216] | 0 |  |  | 30 |  | 20 |  |  | 0 | 0 | 20 | 15 | 0 |  | 
11 | CCn1nc(C(C)(C)C)cc1C(=O)Nc1cccc(OS(=O)(=O)CC)c1 [Compound 408] | 20 |  |  | 70 |  |  |  |  | 45 | 60 |  |  |  |  | 
12 | CCOc1cccc(NC(=O)c2cc(C(C)(C)C)nn2CC)c1 [Compound 136] | 20 | 25 |  | 80 |  | 40 | 20 |  |  | 40 | 20 | 45 |  |  | 
13 | CCn1nc(C(C)(C)C)cc1C(=O)Nc1cc(C(=O)NCC2CC2)ccn1 [Compound 155] | 0 | 25 |  | 65 |  |  |  |  |  | 50 |  |  |  |  | 
14 | CCN(C(C)=O)C(=O)c1ccc(F)c(NC(=O)c2cc(C(C)(C)C)nn2CC)c1 [Compound 413] | 0 |  |  | 80 |  | 20 |  |  | 25 | 70 | 10 | 15 | 5 |  | 
15 | CCNC(=O)c1ccc(F)c(NC(=O)c2cc(C(C)(C)C)nn2CC)n1 [Compound 278] | 0 |  |  | 25 |  | 5 |  |  | 0 | 0 | 10 | 25 | 10 |  | 
